Laboratory results as given in publication PMC11489206, “Transport of perfluoroalkyl substances across human induced pluripotent stem cell-derived intestinal epithelial cells in comparison with primary human intestinal epithelial cells and Caco-2 cells” (Archives of Toxicology, 2024).
Where two headings read alike, the source gives them in different places. Marks after values point to notes of the source that are not given here.

Experiments:
[1] = Transport study across hiPSC-derived IEC layers; conditions: human
Method: For differentiation into IECs, definitive endoderm cells were subsequently differentiated into intestinal stem cells by changing medium into DMEM/F12 containing 2% fetal bovine serum, 1% GlutaMAX (Gibco) and 250 ng/ml FGF2 (R&D Systems). After 4 days, cells were dissociated using Accutase and seeded onto polyester Transwell inserts (0.4 µm, Corning) coated with Growth Factor Reduced Matrigel #356231. Cells were cultured for 7 days in intestinal differentiation medium (DMEM/F-12 containing 2% fetal bovine serum, 1% non-essential amino acids (Gibco), 1 × B27 (Gibco), 1 × N2 (Gibco), 1% penicillin/streptomycin (Gibco) and 2 mM L-glutamine (Gibco)) supplemented with 20 ng/ml EGF (R&D Systems) and 30 µM Forskolin (Sigma). ROCK inhibitor, y-27632 (final concentration 10 µM; Stem Cell Technologies), was added during the initial 24 h after seeding to reduce cell death. The cells were subsequently cultured for 12 days in intestinal differentiation medium supplemented with 20 ng/ml EGF, 30 µM Forskolin, 5 µM 5-aza-2′-deoxycytidine (Sigma), 20 µM PD98059 (Stem Cell Technologies) and 0.5 µM A-83–01 (Sigma). The medium was refreshed every 2–3 days. Barrier integrity was determined by measuring apical to basolateral translocation of Lucifer yellow (see Supplementary Data for a detailed description).
(§1) Transport studies were performed in Caco-2 cells, hiPSC-derived IECs and EpiIntestinal microtissues. To that end, Caco-2 cell layers were differentiated for 21 days and hiPSCs were differentiated into IEC layers for 26 days, as described above. EpiIntestinal microtissues were subjected to transport studies 1 day after arrival. […] For all models, PFAS transport was assessed in apical to basolateral, and basolateral to apical direction using HBSS containing a mixture of PFASs containing 1 µM of each PFAS. See Supplementary Data for a detailed description of the method used for the transport studies of the model compounds and PFASs.
Prior to exposure to the transport study compounds, the cells were washed with transport medium (HBSS; Sigma). […] 100 µL aliquots were collected from the basolateral compartment and replaced with the same volume HBSS at settled time points (0, 15, 30 and 60 min). For basolateral to apical transport in the EpiIntestinal microtissues, 0.2 mL HBSS was added to the apical compartment and 0.5 mL HBSS containing a mixture of PFASs containing 1 µM of each PFAS, was added to the basolateral compartment. 100 µL aliquots were collected from the apical compartment and replaced with the same volume of HBSS at settled time points (0, 15, 30 and 60 min). For apical to basolateral transport across the Caco-2 cell layers and hiPSC-derived IEC layers, 1.2 mL HBSS was added to the basolateral compartment and 0.4 mL HBSS containing either model compounds (10 µM) or a mixture of PFASs containing 1 µM of each PFAS, was added to the apical compartment. 100 µL aliquots were collected from the basolateral compartment and replaced with the same volume of HBSS at settled time points (0, 7.5, 15, 30 and 60 min for the model compounds with both models and the PFASs with the hiPSC-derived IEC layers and 0, 15, 30 and 60 min for PFASs with the Caco-2 cell layers). For basolateral to apical transport, 0.4 mL HBSS was added to the apical compartment and 1.2 mL HBSS containing 10 µM of the model compounds or a mixture of PFASs containing 1 µM of each PFAS, was added to the basolateral compartment. 100 µL aliquots were collected from the apical compartment and replaced with the same volume of HBSS at settled time points (0, 7.5, 15, 30 and 60 min for the model compounds with both models and the PFASs with the hiPSC-derived IEC layers and 0, 15, 30 and 60 min for PFASs with the Caco-2 cell layers).

[2] = Transport study across Caco-2 cell layers; conditions: human, Caco-2
Method: Human colorectal adenocarcinoma cells (Caco-2, HTB-37) were obtained from American Type Culture Collection (ATCC, Manassas, VA). Cells were cultured in a humidified incubator (37°C, 5% CO2) in Dulbecco’s modified Eagle’s medium (DMEM) supplemented with 10% heat-inactivated fetal bovine serum (Gibco, Thermo Fisher Scientific, Waltham, MA), 1% non-essential amino acids (Gibco) and 1% penicillin/streptomycin (Sigma). For experiments, Caco-2 cells below passage number 50 were used within 10 passages. They were harvested at 80% confluence using Trypsin/EDTA (0.25%/0.05%; PAN Biotech, Aidenbach, Germany) and seeded at a density of 4 × 10^5 cells/cm^2 into inserts with a polycarbonate membrane (0.4 µm pore, Corning, New York, NY). After 21 days of differentiation (using 500 µl cell culture medium in the apical and 1500 µl in the basolateral compartment), monolayer integrity was determined by measuring transepithelial electrical resistance (TEER) with a Millicell ERS Volt-Ohm meter (Millipore, Bedford, MA).
as §1
(§2) Prior to exposure to the transport study compounds, the cells were washed with transport medium (HBSS; Sigma). […] 100 µL aliquots were collected from the basolateral compartment and replaced with the same volume HBSS at settled time points (0, 15, 30 and 60 min). For basolateral to apical transport in the EpiIntestinal microtissues, 0.2 mL HBSS was added to the apical compartment and 0.5 mL HBSS containing a mixture of PFASs containing 1 µM of each PFAS, was added to the basolateral compartment. 100 µL aliquots were collected from the apical compartment and replaced with the same volume of HBSS at settled time points (0, 15, 30 and 60 min). For apical to basolateral transport across the Caco-2 cell layers and hiPSC-derived IEC layers, 1.2 mL HBSS was added to the basolateral compartment and 0.4 mL HBSS containing either model compounds (10 µM) or a mixture of PFASs containing 1 µM of each PFAS, was added to the apical compartment. 100 µL aliquots were collected from the basolateral compartment and replaced with the same volume of HBSS at settled time points (0, 7.5, 15, 30 and 60 min for the model compounds with both models and the PFASs with the hiPSC-derived IEC layers and 0, 15, 30 and 60 min for PFASs with the Caco-2 cell layers). For basolateral to apical transport, 0.4 mL HBSS was added to the apical compartment and 1.2 mL HBSS containing 10 µM of the model compounds or a mixture of PFASs containing 1 µM of each PFAS, was added to the basolateral compartment. 100 µL aliquots were collected from the apical compartment and replaced with the same volume of HBSS at settled time points (0, 7.5, 15, 30 and 60 min for the model compounds with both models and the PFASs with the hiPSC-derived IEC layers and 0, 15, 30 and 60 min for PFASs with the Caco-2 cell layers). After 60 minutes, all liquid was collected from the apical and basolateral compartment and the cells were lysed in 200 µL RIPA buffer (Thermo Fisher Scientific), and chemicals were quantified in the different compartments (apical, basolateral and cells) in order to calculate the mass balance.
(§3) The apparent permeability coefficient (Papp, cm/s) was calculated using the following equation: […]

[3] = tested on: hiPSC-derived IEC layers; parameters: method as in Kabeya et al. ([2020]); conditions: apical to basolateral, ref Kabeya et al. ([2020]); cited from earlier work
[4] = ref Ayehunie et al. (2005); cited from earlier work
[5] = tested on: EpiIntestinal model; conditions: apical to basolateral, ref Ayehunie et al. (2005); cited from earlier work
[6] = tested on: Caco-2 model; conditions: cited from earlier work
[7] = Transport study across EpiIntestinal microtissues; conditions: human
Method: The human EpiIntestinal small intestinal microtissues, consisting of epithelial cells and an underlying lamina propria containing intestinal fibroblasts, were obtained from MatTek Life Sciences (Ashland, USA). Cell culture inserts (8.8 mm ID) were placed in 12-well plates and cells were maintained in 100 µl maintenance medium (MatTek Life Sciences) in the apical compartment and 5 ml maintenance medium in the basolateral compartment upon arrival. The transport studies were performed 1 day after arrival.
as §1, §2, §3
where A is the surface area (cm^2), dQ is the amount of the compound transported (nmol) over the respective time interval dt (s) and C0 is the initial concentration in the donor compartment (µM).

Structure (SMILES) | Papp A→B at 60 min, 10 µM [1] [×10⁻⁶ cm/s] | Papp B→A at 60 min, 10 µM [1] [×10⁻⁶ cm/s] | efflux ratio at 60 min, 10 µM [1] | Papp A→B at 60 min, 10 µM [2] [×10⁻⁶ cm/s] | Papp B→A at 60 min, 10 µM [2] [×10⁻⁶ cm/s] | efflux ratio at 60 min, 10 µM [2] | Average Papp A–B [3] | Fa (fraction absorbed in humans) [4] [%] | Average Papp A–B [5] | Average Papp A - B ([6]; ref Ayehunie et al. 2018) [×10⁻⁶ cm/s] | Average Papp A - B ([6]; ref Kabeya et al. 2020) [×10⁻⁶ cm/s] | Average Papp A - B ([6]; ref Yazdanian et al. 1998) [×10⁻⁶ cm/s] | Average Papp A - B ([6]; ref Grès et al. 1998) [×10⁻⁶ cm/s] | Average Papp A - B ([6]; ref Logoyda et al. 2018) [×10⁻⁶ cm/s] | also measured
CCCC(=O)Nc1ccc(OCC(O)CNC(C)C)c(C(C)=O)c1 (centres unmarked) [Acebutolol, acebutolol] | 1.95 ± 0.02 | 7.17 ± 0.27 | 3.67 | 0.42 ± 0.03 | 3.09 ± 0.07 | 7.37 | 2.35 ± 0.88 × 10^–6 cm/s | 40 | 0.4 ± 0.1^a × 10^–6 cm/s | 0.4 | 0.35 | 0.51 |  |  | Average Papp A - B ([6]; ref Liang et al. 2000): 0.51 ×10⁻⁶ cm/s
CCOC(=O)[C@H](CCc1ccccc1)N[C@@H](C)C(=O)N1CCC[C@H]1C(=O)O [Enalapril, enalapril] | 2.95 ± 0.41 | 3.68 ± 0.1 | 1.25 | 0.28 ± 0.04 | 0.43 ± 0.05 | 1.55 | 1.93 ± 0.46 × 10^–6 cm/s | 40 | 0.4 ± 0.2^a × 10^–6 cm/s | 0.2 | 0.19 |  | 0.62 | 1.31 | 
O=S(=O)(O)C(F)(F)C(F)(F)C(F)(F)C(F)(F)C(F)(F)C(F)(F)C(F)(F)C(F)(F)F [PFOS, perfluorooctane sulfonate] |  |  |  |  |  |  |  |  |  |  |  |  |  |  | Papp A→B at 60 min, 1 µM [7]: 5.97 ± 0.05 ×10⁻⁶ cm/s; Papp B→A at 60 min, 1 µM [7]: 3.31 ± 0.22 ×10⁻⁶ cm/s; efflux ratio at 60 min, 1 µM [7]: 0.55; Papp A→B at 60 min, 1 µM [1]: 0.63 ± 0.08 ×10⁻⁶ cm/s; Papp B→A at 60 min, 1 µM [1]: 0.82 ± 0.17 ×10⁻⁶ cm/s; efflux ratio at 60 min, 1 µM [1]: 1.31; Papp A→B at 60 min, 1 µM [2]: 2.88 ± 0.2 ×10⁻⁶ cm/s; Papp B→A at 60 min, 1 µM [2]: 1.06 ± 11 ×10⁻⁶ cm/s; efflux ratio at 60 min, 1 µM [2]: 0.37

Further lines, with some results ahead:

Papp A→B at 60 min, 10 µM [1] [×10⁻⁶ cm/s] | Papp B→A at 60 min, 10 µM [1] [×10⁻⁶ cm/s] | efflux ratio at 60 min, 10 µM [1] | Papp A→B at 60 min, 10 µM [2] [×10⁻⁶ cm/s] | Papp B→A at 60 min, 10 µM [2] [×10⁻⁶ cm/s] | efflux ratio at 60 min, 10 µM [2] | Structure (SMILES) | Average Papp A–B [3] | Fa (fraction absorbed in humans) [4] [%] | Average Papp A–B [5] | Average Papp A - B ([6]; ref Ayehunie et al. 2018) [×10⁻⁶ cm/s] | Average Papp A - B ([6]; ref Kabeya et al. 2020) [×10⁻⁶ cm/s] | Average Papp A - B ([6]; ref Yazdanian et al. 1998) [×10⁻⁶ cm/s] | Average Papp A - B ([6]; ref Grès et al. 1998) [×10⁻⁶ cm/s] | Average Papp A - B ([6]; ref Logoyda et al. 2018) [×10⁻⁶ cm/s] | also measured
22.3 ± 0.4 | 25.5 ± 1.17 |  |  |  |  | C=C[C@H]1C[N@@]2CC[C@H]1C[C@@H]2[C@@H](O)c1ccnc2ccc(OC)cc12 [Quinidine, quinidine] |  |  | 7.9 ± 2.7^a × 10^–6 cm/s |  |  |  |  |  | 
26.7 ± 1.4 | 17.9 ± 0.93 |  | 11.8 ± 1.07 | 8.13 ± 0.12 |  | CC(C)NCC(O)COc1cccc2ccccc12 (centres unmarked) [Propranolol, propranolol] |  |  | 9.4 ± 5.4^b × 10^–6 cm/s | 12.9 |  | 21.8 | 34.4 | 36.13 | Average Papp A - B ([6]; ref Artursson et al. 1991): 41.9 ×10⁻⁶ cm/s; Average Papp A - B ([6]; ref Nožinić et al. 2010): 0.12 ×10⁻⁶ cm/s; Average Papp A - B ([6]; ref Walgren et al. 1999): 35.3 ×10⁻⁶ cm/s
